Results on 20 molecules are retold here after PMC6270614 (Molecules, 2013).

The target in data set [1] is CB1 receptor. The following applies: cited from earlier work.
Data set [2] has as its target CB2. Set-up: method as in PMID 21885167. The following applies: Figure 1; cited from earlier work.
Data set [3] addresses human cannabinoid CB1 receptor (Homo sapiens, UniProt P21554). Nature of the data set: CB1 receptor radioligand ([3H]CP-55,940) displacement binding assay. The settings on record: for inhibition at 1 µM: read-out: displacement of [3H]CP-55,940 in the preliminary screen (printed in the CB1 Ki column). Here is the method: In all cases, Ki values were calculated by applying the Cheng-Prusoff equation [34] to the IC50 values (obtained by GraphPad, GraphPad Software, Inc., La Jolla, CA, USA) for the displacement of the bound radioligand by increasing concentrations of the test compounds (after three separate experiments for each compound).
(In a radioligand displacement assay an active substance lowers the binding of a labelled ligand.)

The subject of data set [4] is CB1. Set-up: method as in PMID 21420860. The settings on record: Figure 1; read-out: IC50 cAMP (CB1); cited from earlier work.
Data set [5] relates to CB2. More on the design: method as in PMID 21420860. The following applies: Figure 1; read-out: IC50 cAMP (CB2); cited from earlier work.
Data set [6] has as its system CB2. More on the design: method as in PMID 21669533. The settings on record: Figure 1; cited from earlier work.
Data set [7] concerns CB1. Set-up: method as in PMID 21669533. The following applies: Figure 1; cited from earlier work.
The mark [8] stands for this setting: CB1 (Ki, nM), displacement of 0.5 nM [3H]CP-55,940, means ± SEM, n = 3, Cheng-Prusoff from IC50.
Setting [9] is: Experimental activity (pIC50, M), CoMFA training and test set input.
The mark [10] stands for this setting: IC50 (CB1 displacement), displacement of [3H]CP-55,940.
[11] abbreviates: CoMFA training and test set input, read-out: Experimental activity (pIC50) (converted).

Read-outs that look alike come from different tables or passages of the source.

Sequence of human cannabinoid CB1 receptor (P21554 whole entry): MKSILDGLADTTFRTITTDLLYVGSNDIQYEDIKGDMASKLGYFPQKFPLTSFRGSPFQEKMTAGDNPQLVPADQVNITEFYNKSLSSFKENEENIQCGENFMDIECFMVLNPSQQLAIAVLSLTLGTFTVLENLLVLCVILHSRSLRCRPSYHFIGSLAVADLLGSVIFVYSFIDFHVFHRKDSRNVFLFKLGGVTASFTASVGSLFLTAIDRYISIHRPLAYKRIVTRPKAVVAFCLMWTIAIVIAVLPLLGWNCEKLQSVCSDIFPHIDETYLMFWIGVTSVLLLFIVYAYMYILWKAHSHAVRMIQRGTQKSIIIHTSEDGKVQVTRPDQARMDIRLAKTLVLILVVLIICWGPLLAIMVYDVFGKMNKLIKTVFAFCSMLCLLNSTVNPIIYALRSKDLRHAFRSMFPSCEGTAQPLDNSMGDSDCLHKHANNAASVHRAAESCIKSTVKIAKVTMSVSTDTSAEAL

As a reminder, the Ki is the dissociation constant of the complex between target and ligand, obtained from inhibition or displacement. Take `CCCCCn1c(C)c(C(=O)c2ccccc2I)c2ccccc21` [AM679]: the inhibition constant Ki in data set [1] (non-selective CB1 and CB2 agonist) was 13.5 nM.

As for `CCCCCn1c(C)c(C(=O)c2cccc3ccccc23)c2cccnc21` [Abbott], the “pKi (CB1)” value in data set [1] (Figure 1) is reported as 7.9. Also, in data set [2], the “pKi (CB2)” value is given as 7.3.

In general, melting point refers to the temperature of the solid-liquid transition. `Fc1ccc2c(c1)nc(-c1cccnc1)n2Cc1cccc2ccccc12` [Compound 38, 5-Fluoro-1-(naphthalen-1-ylmethyl)-2-(pyridin-3-yl)-1H-benzo[d]imidazole] registered a melting point of 163.4 to 163.9 °C. This molecule also gave a Ki in data set [3] (setting [8]) of 98.2 ± 33.5 nM. Further, the IC50 in data set [3] (setting [9]) was 180 nM.

For `Fc1ccc2nc(-c3cccnc3)n(Cc3cccc4ccccc34)c2c1` [Compound 39, 6-Fluoro-1-(naphthalen-1-ylmethyl)-2-(pyridin-3-yl)-1H-benzo[d]imidazole], the melting point lay within 156.1 to 157 °C. The molecule further registered a Ki in data set [3] (setting [8]) below 200 nM. Moreover, in data set [3] (setting [9]), the IC50 is 0.979 nM. In data set [3] (setting [10]), this molecule returned an IC50 below 10 nM. Besides, in data set [3] (read-out: CB1 (Ki), displacement of 0.5 nM [3H]CP-55,940, means ± SEM, n = 3, Cheng-Prusoff from IC50), the Ki came out at 0.53 ± 0.9 nM.

Regarding `Cc1cc2nc(-c3cccnc3)n(Cc3cccc4ccccc34)c2cc1C` [Compound 40, 5,6-Dimethyl-1-(naphthalen-1-ylmethyl)-2-(pyridin-3-yl)-1H-benzo[d]imidazole], the melting point lay within 141.4 to 142.1 °C. Besides, the inhibition at 1 µM in data set [3] is below 50%.

`c1ccc2c(Cn3c(-c4ccncc4)nc4ccccc43)cccc2c1` [Compound 41, 1-(Naphthalen-1-ylmethyl)-2-(pyridin-4-yl)-1H-benzo[d]imidazole]: the melting point fell in the range of 163.3 to 163.8 °C. For the same molecule, the IC50 in data set [3] (setting [11]) was 274 nM. Besides, the Ki in data set [3] (read-out: CB1 (Ki)) stood at 149 ± 1.9 nM.

`Fc1ccc2c(c1)nc(-c1ccncc1)n2Cc1cccc2ccccc12` [Compound 42, 5-Fluoro-1-(naphthalen-1-ylmethyl)-2-(pyridin-4-yl)-1H-benzo[d]imidazole] came in with a melting point of 151.5 to 152.5 °C. Further, the inhibition at 1 µM in data set [3] is below 50%.

On to `Fc1ccc2nc(-c3ccncc3)n(Cc3cccc4ccccc34)c2c1` [Compound 43, 6-Fluoro-1-(naphthalen-1-ylmethyl)-2-(pyridin-4-yl)-1H-benzo[d]imidazole], for which the melting point was in the range of 167.4 to 168.1 °C. In data set [3] (setting [11]), the IC50 was 1120 nM. Further, the Ki in data set [3] (read-out: CB1 (Ki)) was determined as 614 ± 54.7 nM.

The molecule `Cc1cc2nc(-c3ccncc3)n(Cc3cccc4ccccc34)c2cc1C` [Compound 44, 5,6-Dimethyl-1-(naphthalen-1-ylmethyl)-2-(pyridin-4-yl)-1H-benzo[d]imidazole] yielded a melting point of 156.8 to 157.6 °C. Also, the Ki in data set [3] (setting [8]) amounted to 4.84 ± 2 nM. In data set [3] (setting [9]), the IC50 is 8.87 nM. The molecule further gave an IC50 in data set [3] (setting [10]) below 10 nM.

Regarding `c1ccc(-c2nc3ccccc3n2Cc2ccc3ccccc3c2)nc1` [Compound 45, 1-(Naphthalen-2-ylmethyl)-2-(pyridin-2-yl)-1H-benzo[d]imidazole], the melting point fell in the range of 150.7 to 151.8 °C. In data set [3] (setting [8]), the Ki was found to be 31.8 ± 12 nM. This molecule gave an IC50 in data set [3] (setting [9]) of 58.3 nM.

For the molecule `Fc1ccc2c(c1)nc(-c1ccccn1)n2Cc1ccc2ccccc2c1` [Compound 46, 5-Fluoro-1-(naphthalen-2-ylmethyl)-2-(pyridin-2-yl)-1H-benzo[d]imidazole], the melting point is 165.7 to 166.4 °C. Also, the inhibition at 1 µM in data set [3] was below 50%.

As for `Fc1ccc2nc(-c3ccccn3)n(Cc3ccc4ccccc4c3)c2c1` [Compound 47, 6-Fluoro-1-(naphthalen-2-ylmethyl)-2-(pyridin-2-yl)-1H-benzo[d]imidazole], the melting point was 170.5 to 171.3 °C. In addition, in data set [3], the inhibition at 1 µM was below 50%.

For the molecule `c1cncc(-c2nc3ccccc3n2Cc2ccc3ccccc3c2)c1` [Compound 49, 1-(Naphthalen-2-ylmethyl)-2-(pyridin-3-yl)-1H-benzo[d]imidazole], the melting point is 146.3 to 147 °C. Moreover, the IC50 in data set [3] (setting [11]) is 3380 nM. Besides, in data set [3] (read-out: CB1 (Ki)), the Ki is 1840 ± 79.8 nM.

In turn, `Fc1ccc2c(c1)nc(-c1cccnc1)n2Cc1ccc2ccccc2c1` [Compound 50, 5-Fluoro-1-(naphthalen-2-ylmethyl)-2-(pyridin-3-yl)-1H-benzo[d]imidazole] displayed a melting point of 175.7 to 176.8 °C. Besides, the IC50 in data set [3] (setting [11]) was 600 nM. Moreover, the inhibition constant (Ki) in data set [3] (read-out: CB1 (Ki)) amounted to 327 ± 60 nM.

On to `Cc1cc2nc(-c3cccnc3)n(Cc3ccc4ccccc4c3)c2cc1C` [Compound 52, 5,6-Dimethyl-1-(naphthalen-2-ylmethyl)-2-(pyridin-3-yl)-1H-benzo[d]imidazole], for which the melting point lay within 138.5 to 139.5 °C. In data set [3] (setting [8]), this molecule gave a Ki of 140 ± 10.1 nM. Besides, in data set [3] (setting [9]), the IC50 was 256 nM.

As for `Fc1ccc2c(c1)nc(-c1ccncc1)n2Cc1ccc2ccccc2c1` [Compound 54, 5-Fluoro-1-(naphthalen-2-ylmethyl)-2-(pyridin-4-yl)-1H-benzo[d]imidazole], the melting point was in the range of 177.8 to 178.5 °C. Moreover, the Ki in data set [3] (setting [8]) came to 44.4 ± 5.5 nM. The IC50 in data set [3] (setting [9]) was 81.5 nM.

`Fc1ccc2nc(-c3ccncc3)n(Cc3ccc4ccccc4c3)c2c1` [Compound 55, 6-Fluoro-1-(naphthalen-2-ylmethyl)-2-(pyridin-4-yl)-1H-benzo[d]imidazole] registered a melting point of 163.5 to 164.1 °C. In data set [3] (setting [11]), the IC50 was 1040 nM. In data set [3] (read-out: CB1 (Ki)), the Ki came to 567 ± 7 nM.

`Cc1cc2nc(-c3ccncc3)n(Cc3ccc4ccccc4c3)c2cc1C` [Compound 56, 5,6-Dimethyl-1-(naphthalen-2-ylmethyl)-2-(pyridin-4-yl)-1H-benzo[d]imidazole] yielded a melting point of 133.7 to 134.5 °C. Besides, in data set [3] (setting [11]), the IC50 was 442 nM. Moreover, the Ki in data set [3] (read-out: CB1 (Ki)) was found to be 241 ± 10 nM.

In the case of `O=C(c1cccc(Cl)c1Cl)c1nc(CN2CCC(F)(F)CC2)c2ccccn12` [Merck], the results for the IC50 in data set [4] and in data set [5] were 90 nM and 0.3 nM, respectively.

By EC50 is commonly meant the midpoint of the concentration-response curve. `CCS(=O)(=O)c1ccc2c(c1)nc(C(C)(C)C)n2C[C@@H]1CCCO1` [Pfizer]: the concentration for a half-maximal effect (EC50) is 11.7 nM in data set [6] and above 10 µM in data set [7].
